Measurements published in US12544370B2, “Methods for cancer therapy” (ASCENTAGE PHARMA (SUZHOU) CO., LTD., priority 2018, dated 2026).

Tested on: TKI-resistant patients with chronic phase (CP) or accelerated phase (AP) CML
Experiment: Phase I study, safety / treatment related adverse events (Example 1)
Conditions: Example 1
From the text: The eligible patients received treatments until disease progression or intolerable toxicities. The primary efficacy endpoint in the CML AP and CP patients, was complete hematological response (CHR) and major cytogenetic response (MCyR) respectively, MCyR includes partial cytogenetic response (PCyR) and complete cytogenetic response (CCyR). Blood samples were collected at various time points on Day 1-2 and Day 27-28 during cycle 1 for PK analyses.
• 3 to 6 subjects in each dose group (traditional 3+3 dose increasing method) • Up to 15 subjects in the MTD dose group (safety and PK characteristics) • Dose extension studies: • Up to 60 subjects (CP/CML-AP) • Extended dose selection is based on initial safety and efficacy Study Endpoints Primary Endpoint

[1] = treatment related AE, all patients

Cc1ccc(C(=O)Nc2ccc(CN3CCN(C)CC3)c(C(F)(F)F)c2)cc1C#Cc1cnc2[nH]ncc2c1 [compound of formula (I-A), 3-(2-(1H-pyrazolo[3,4-b]pyridin-5-yl)ethynyl)-4-methyl-N-(4-((4-methylpiperazin-1-yl)methyl)-3-(trifluoromethyl)phenyl)-benzamide]
Lipase increased leading to dose interruption/reduction, percent of cohort (40 mg (n = 37)): (2.7%) | Thrombocytopenia leading to dose interruption/reduction (40 mg (n = 37)): 11 n | Thrombocytopenia leading to dose interruption/reduction, percent of cohort (40 mg (n = 37)): (30%) | ALT increased leading to dose interruption/reduction (45 mg (n = 3)): 0 n (%) | AST increased leading to dose interruption/reduction (45 mg (n = 3)): 0 n (%) | Amylase increased leading to dose interruption/reduction (45 mg (n = 3)): 0 n (%) | Anemia leading to dose interruption/reduction (45 mg (n = 3)): 0 n (%) | Atrial fibrillation leading to dose interruption/reduction (45 mg (n = 3)): 0 n (%) | Cardiomyopathy leading to dose interruption/reduction (45 mg (n = 3)): 0 n (%) | GGT increased leading to dose interruption/reduction (45 mg (n = 3)): 0 n (%) | Hyperkalemia leading to dose interruption/reduction (45 mg (n = 3)): 0 n (%) | Hypertriglyceridemia leading to dose interruption/reduction (45 mg (n = 3)): 0 n (%) | Hypocalcemia leading to dose interruption/reduction (45 mg (n = 3)): 0 n (%) | Lacunar infarction leading to dose interruption/reduction (45 mg (n = 3)): 0 n (%) | Lipase increased leading to dose interruption/reduction (45 mg (n = 3)): 0 n (%) | Thrombocytopenia leading to dose interruption/reduction (45 mg (n = 3)): 2(67%) n (%) | ALT increased leading to dose interruption/reduction (50 mg (n = 24)): 1 n | ALT increased leading to dose interruption/reduction, percent of cohort (50 mg (n = 24)): (4.2%) | AST increased leading to dose interruption/reduction (50 mg (n = 24)): 1 n | AST increased leading to dose interruption/reduction, percent of cohort (50 mg (n = 24)): (4.2%) | Amylase increased leading to dose interruption/reduction (50 mg (n = 24)): 0 n (%) | Anemia leading to dose interruption/reduction (50 mg (n = 24)): 0 n (%) | Atrial fibrillation leading to dose interruption/reduction (50 mg (n = 24)): 0 n (%) | Cardiomyopathy leading to dose interruption/reduction (50 mg (n = 24)): 0 n (%) | GGT increased leading to dose interruption/reduction (50 mg (n = 24)): 0 n (%) | Hyperkalemia leading to dose interruption/reduction (50 mg (n = 24)): 0 n (%) | Hypertriglyceridemia leading to dose interruption/reduction (50 mg (n = 24)): 0 n (%) | Hypocalcemia leading to dose interruption/reduction (50 mg (n = 24)): 1 n | Hypocalcemia leading to dose interruption/reduction, percent of cohort (50 mg (n = 24)): (4.2%) | Lacunar infarction leading to dose interruption/reduction (50 mg (n = 24)): 1 n | Lacunar infarction leading to dose interruption/reduction, percent of cohort (50 mg (n = 24)): (4.2%) | Lipase increased leading to dose interruption/reduction (50 mg (n = 24)): 1 n | Lipase increased leading to dose interruption/reduction, percent of cohort (50 mg (n = 24)): (4.2%) | Thrombocytopenia leading to dose interruption/reduction (50 mg (n = 24)): 8 n | Thrombocytopenia leading to dose interruption/reduction, percent of cohort (50 mg (n = 24)): (33%) | ALT increased leading to dose interruption/reduction (60 mg (n = 3)): 0 n (%) | AST increased leading to dose interruption/reduction (60 mg (n = 3)): 0 n (%) | Amylase increased leading to dose interruption/reduction (60 mg (n = 3)): 0 n (%) | Anemia leading to dose interruption/reduction (60 mg (n = 3)): 0 n (%) | Atrial fibrillation leading to dose interruption/reduction (60 mg (n = 3)): 0 n (%) | Cardiomyopathy leading to dose interruption/reduction (60 mg (n = 3)): 1(33%) n (%) | GGT increased leading to dose interruption/reduction (60 mg (n = 3)): 0 n (%) | Hyperkalemia leading to dose interruption/reduction (60 mg (n = 3)): 0 n (%) | Hypertriglyceridemia leading to dose interruption/reduction (60 mg (n = 3)): 0 n (%) | Hypocalcemia leading to dose interruption/reduction (60 mg (n = 3)): 0 n (%) | Lacunar infarction leading to dose interruption/reduction (60 mg (n = 3)): 0 n (%) | Lipase increased leading to dose interruption/reduction (60 mg (n = 3)): 0 n (%) | Thrombocytopenia leading to dose interruption/reduction (60 mg (n = 3)): 2(67%) n (%) | patients with dose-limiting toxicity (DLT) (60 mg cohort): Two out of 3 | patient withdrawal from the study because of TRAEs (70 patients): no patient withdrawal | maximum toxic dosage (MTD) (QOD): 50 mg | tolerability (median follow-up of 4.1 (1.0-21.2) cycles): well-tolerated in all dose cohorts other than the 60 mg cohort | Alanine aminotransferase increased, Any grade [1]: 29 (29%) n (%) | Alanine aminotransferase increased, Grade 3-4 [1]: 2 (2.0%) n (%) | Alanine aminotransferase increased, SAE [1]: 0 n (%) | Anaemia, Any grade [1]: 10 (10%) n (%) | Anaemia, Grade 3-4 [1]: 9 (9.0%) n (%) | Anaemia, SAE [1]: 2 (2.0%) n (%) | Aspartate aminotransferase inceased, Any grade [1]: 31 (31%) n (%) | Aspartate aminotransferase inceased, Grade 3-4 [1]: 2 (2.0%) n (%) | Aspartate aminotransferase inceased, SAE [1]: 0 n (%) | Blood bilirubin increased, Any grade [1]: 28 (28%) n (%) | Blood bilirubin increased, Grade 3-4 [1]: 1 (1.0%) n (%) | Blood bilirubin increased, SAE [1]: 0 n (%) | Blood creatine phosphokinase increased, Any grade [1]: 19 (19%) n (%) | Blood creatine phosphokinase increased, Grade 3-4 [1]: 1 (1.0%) n (%) | Blood creatine phosphokinase increased, SAE [1]: 0 n (%) | Hypertriglyceridaemia, Any grade [1]: 51 (51%) n (%) | Hypertriglyceridaemia, Grade 3-4 [1]: 4 (4.0%) n (%) | Hypertriglyceridaemia, SAE [1]: 0 n (%) | Hypocalcaemia, Any grade [1]: 31 (31%) n (%) | Hypocalcaemia, Grade 3-4 [1]: 0 n (%) | Hypocalcaemia, SAE [1]: 0 n (%) | Leukopenia, Any grade [1]: 17 (17%) n (%) | Leukopenia, Grade 3-4 [1]: 15 (15%) n (%) | Neutropenia, Any grade [1]: 2 (2.0%) n (%) | Neutropenia, Grade 3-4 [1]: 0 n (%) | Neutropenia, SAE [1]: 0 n (%) | Proteinuria, Any grade [1]: 11 (11%) n (%) | Proteinuria, Grade 3-4 [1]: 1 (1.0%) n (%) | Proteinuria, SAE [1]: 0 n (%) | Skin hyperpigmentation, Any grade [1]: 35 (35%) n (%) | Skin hyperpigmentation, Grade 3-4 [1]: 0 n (%) | Skin hyperpigmentation, SAE [1]: 0 n (%) | Thrombocytopenia, Any grade [1]: 46 (46%) n (%) | Thrombocytopenia, Grade 3-4 [1]: 45 (45%) n (%) | Thrombocytopenia, SAE [1]: 5 (5.0%) n (%) | leukocytosis, Any grade [1]: 9 (9.0%) n (%) | leukocytosis, Grade 3-4 [1]: 8 (8.0%) n (%) | leukocytosis, SAE [1]: 0 n (%) | leukopenia, SAE [1]: 0 n (%)
